Measurements taken from paper PMC4510386, “Transglycosylation Activity of Glycosynthase Mutants of Endo-β-N-Acetylglucosaminidase from Coprinopsis cinerea” (PLoS ONE, 2015).

Target: T1, Endo-CC1 (Coprinopsis cinerea, UniProt A8P7P2)
T1 construct: gene CC1G_11102; full-length cDNA, 787 residues, His6-tagged, pET23b NdeI/XhoI, E. coli BL21-CodonPlus (DE3), HisTrap purified
Test: HPLC of Dns-Asn-GlcNAc release, Lineweaver-Burk
Assay type: biochemical
Conditions: 100 mM phosphate pH 7.5, 37 C; hydrolysis

T1 sequence (A8P7P2 entry or part of it): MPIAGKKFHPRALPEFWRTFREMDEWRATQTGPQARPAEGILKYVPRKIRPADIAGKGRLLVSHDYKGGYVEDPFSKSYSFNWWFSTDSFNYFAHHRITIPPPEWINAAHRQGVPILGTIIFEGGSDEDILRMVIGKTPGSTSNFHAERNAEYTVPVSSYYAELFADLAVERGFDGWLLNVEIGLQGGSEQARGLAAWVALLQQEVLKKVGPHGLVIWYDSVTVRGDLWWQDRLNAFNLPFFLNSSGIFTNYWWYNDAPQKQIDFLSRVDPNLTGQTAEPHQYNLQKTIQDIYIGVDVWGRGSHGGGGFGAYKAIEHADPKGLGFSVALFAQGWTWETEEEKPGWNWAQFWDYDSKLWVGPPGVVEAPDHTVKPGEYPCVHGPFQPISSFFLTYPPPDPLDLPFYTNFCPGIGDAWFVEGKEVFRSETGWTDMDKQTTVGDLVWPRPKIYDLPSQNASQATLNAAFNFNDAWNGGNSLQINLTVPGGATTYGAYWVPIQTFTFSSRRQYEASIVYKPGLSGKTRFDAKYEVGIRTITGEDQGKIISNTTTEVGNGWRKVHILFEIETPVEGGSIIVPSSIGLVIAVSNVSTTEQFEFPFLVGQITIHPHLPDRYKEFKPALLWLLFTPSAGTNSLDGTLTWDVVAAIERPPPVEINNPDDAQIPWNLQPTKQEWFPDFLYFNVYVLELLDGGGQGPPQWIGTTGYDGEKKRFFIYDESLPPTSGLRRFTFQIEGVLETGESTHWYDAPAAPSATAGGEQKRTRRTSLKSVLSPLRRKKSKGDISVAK

Substance: Dns-SG
- Km: 1900 µM
